Data as given in article PMC5122774, “Cloning of Glycerophosphocholine Acyltransferase (GPCAT) from Fungi and Plants” (The Journal of Biological Chemistry, 2016).

Tests used:
RcGPCAT = molecular target: T1, RcGPCAT (Ricinus communis, UniProt B9RK42); assay: radiometric acyltransferase assay, yeast microsomes; type: biochemical; settings: [14C]GPC 4 mM; pH 7.2 phosphate, 1% BSA, 30 °C
T1 construct: gene GPC1

[1] = substrate: C[N+](C)(C)CCOP(=O)([O-])OC[C@H](O)CO; assay: as above; type: biochemical, Saccharomyces cerevisiae; settings: 18:1-CoA as acyl donor, pH 7.2 phosphate, 1% BSA, 30 °C, labelled compound

T1 sequence (B9RK42 whole entry, looked up): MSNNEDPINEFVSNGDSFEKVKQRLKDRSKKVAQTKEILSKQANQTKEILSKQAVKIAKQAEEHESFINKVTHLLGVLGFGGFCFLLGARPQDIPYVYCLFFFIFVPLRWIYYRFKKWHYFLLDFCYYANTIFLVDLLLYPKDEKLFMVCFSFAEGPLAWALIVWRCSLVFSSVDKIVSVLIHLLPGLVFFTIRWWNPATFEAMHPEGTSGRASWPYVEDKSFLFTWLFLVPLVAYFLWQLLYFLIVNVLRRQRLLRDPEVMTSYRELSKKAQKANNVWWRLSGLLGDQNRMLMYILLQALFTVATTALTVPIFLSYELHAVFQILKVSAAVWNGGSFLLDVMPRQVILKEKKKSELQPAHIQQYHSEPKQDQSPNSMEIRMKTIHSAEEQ

CCCCCC[C@@H](O)C/C=C\CCCCCCCC(=O)SCCNC(=O)CCNC(=O)[C@H](O)C(C)(C)COP(=O)(O)OP(=O)(O)OC[C@H]1O[C@@H](n2cnc3c(N)ncnc32)[C@H](O)[C@@H]1OP(=O)(O)O [ricinoleoyl-CoA]
radiometric acyltransferase assay, yeast microsomes (RcGPCAT): the castor GPCAT accepted all of the acyl-CoAs tested, including ricinoleoyl-CoA

B1: ScGPCAT (Gpc1p) (Saccharomyces cerevisiae S288C) (protein)
chain: MYKLDNNDIDDETNNSVSLTSLLEFLDPIASKVVSKYYHGSHLSKAEQKLRNFEGFRRRKPHHEHDSHHPHHLNRSRSFLQLEDFKVRALQRIRNLDKPLDSIFFKNSSRLEKAFYPFTLFNIFFIGFLMGRFPEWFHVYYTILFFVLMPIRFYTYYKTKNHYFLADFCYFVNMLCLLFIWIFPYSYSLFQSCFAFTFGTLCFAVITWRNSLVIHSIDKTTSCFIHIIPPCVMYVIYHGLPLEYKIERFPGAIIQSELDIKKNILWTSLYYLVWQSLYHYFITLKKSSKIKSGERMTSFEYLTTHQFKNFWAVKLRSPWPMIIYTLSQYFYQLFTMLLCGIWIRYKLAAALFLTIVFLWASHNGATYYIDHYGKNFEKEVDRLRLEVENLQQKLQPDSDAVISDASVNDKDYLNVNRDEDFDDSSSVSSKSD
notes: full-length, 52 kDa, eight predicted TM helices; pYES-DEST52 (GAL1 promoter) in yeast ale1Δ gpc1Δ, microsomal membranes
Km [1]: 450 µM
